Where two headings read alike, the source gives them in different places.
Columns and labels:
[1] = test system: Leucoagaricus gongylophorus; experiment: Fungistatic inhibition: fungal inoculations exposed to wells containing botanical oils, mycelial growth toward the well vs unexposed controls; format: cell-based; conditions: 21 days exposure to well containing oil; mycelial growth toward well vs unexposed control
[2] = test system: Leucoagaricus gongylophorus; conditions: for Growth Evaluation: 30-day incubation, median of five replicates
Method: A similar lab trial was designed and performed to evaluate the fungicidal capacities of these botanical oils in addition to their fungistatic properties against L. gongylophorus. For this test, the plant oils were incorporated directly into the fungal growth medium at different concentrations (0.1, 1, and 5%). The growth of the fungus on this medium was evaluated after a 30-day incubation period, based on the quantity and density of the mycelium, according to the following pattern. Growth was characterized by the following measure: 5+ indicated growth identical to the control treatment (medium alone, with no plant oil treatment), or 100% growth; 4+ indicated growth equivalent to 80% of the control treatment growth; 3+ indicated 60%; 2+ indicated 40%; 1+ indicated 20%; and 0 indicated total elimination of the fungal colony.

Compound: COC(=O)c1ccccc1O [Methyl Salicylate]
- Inhibition (%) of fungal growth (fungistatic) [1]: 100%
- fungal mortality [2]: 100%
- Growth Evaluation ([2]; concentration 0.1% in medium): 3+ (3+ indicated 60%)
- Growth Evaluation ([2]; concentration 1% in medium): 0
- Growth Evaluation ([2]; concentration 5% in medium): 0
